Patent publication US9790211B2, “5-amino-quinoline-8-carboxamide derivatives as 5-HT4 receptor agonists” (SUVEN LIFE SCIENCES LIMITED, priority 2013, dated 2017)

What was measured:
[1] = molecular target: T1, recombinant human 5-HT4 receptor (Homo sapiens, UniProt Q13639); assay: Determination of EC50 values for 5-HT4 receptor (CHO cells, pCRE-Luc reporter); format: cell-based; details: for Emax: CHO; for EC50: CHO cells, human 5-HT4 receptor, luciferase reporter, 4 hours incubation
T1 construct: expressed in transfected cells
T1 sequence (Q13639 whole entry): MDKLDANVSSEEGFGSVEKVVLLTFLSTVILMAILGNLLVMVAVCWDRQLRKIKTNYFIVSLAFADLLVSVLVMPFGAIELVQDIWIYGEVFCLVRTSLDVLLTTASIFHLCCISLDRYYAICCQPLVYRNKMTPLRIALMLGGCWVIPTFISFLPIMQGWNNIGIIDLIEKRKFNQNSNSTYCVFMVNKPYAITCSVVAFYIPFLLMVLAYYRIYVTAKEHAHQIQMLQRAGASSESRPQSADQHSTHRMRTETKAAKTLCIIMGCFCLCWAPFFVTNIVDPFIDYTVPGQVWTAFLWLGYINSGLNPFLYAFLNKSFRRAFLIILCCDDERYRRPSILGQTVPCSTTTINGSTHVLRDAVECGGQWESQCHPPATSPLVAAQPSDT
Procedure: Determination of EC50 Values for 5-HT4 Receptor
A stable CHO cell line expressing recombinant human 5-HT4 receptor and pCRE-Luc reporter system was used for cell-based assay. The assay offers a non-radioactive based approach to determine binding of a compound to GPCRs. In this specific assay, the level of intracellular cyclic AMP, which is modulated by activation, or inhibition of the receptor is measured. The recombinant cells harbor luciferase reporter gene under the control of cAMP response element.
The above cells were grown in 96 well clear bottom white plates in Hams F12 medium containing 10% fetal bovine serum (FBS). Prior to the addition of compounds or standard agonist, cells were serum starved overnight. Increasing concentrations of test compounds were added in OptiMEM medium to the cells. The incubation was continued at 37° C. in CO2 incubator for 4 hours. Medium was removed and cells were washed with phosphate buffered saline. The cells were lysed and luciferase activity was measured in a Luminometer. Luminescence units were plotted against the compound concentrations using Graphpad software.

[2] = Rodent brain penetration study; format: in vivo, Male Wistar rats; details: male, Wistar, rat, brain, po, 3 mg/kg, 3 mg/kg oral (gavage), read-out: Single dose Brain Penetration (Cb/Cp)
Procedure: Male Wistar rats (225±25 grams) were used as experimental animals. Three animals were housed in each cage. Animals were given water and food ad libitum throughout the experiment and maintained on a 12 hours light/dark cycle. Brain penetration was determined in discrete manner in rats. One day prior to dosing day, male wistar rats (225-250 grams) were acclimatized. After acclimatization the rats were grouped according to their weight. In each group, 3 animals were kept in individual cage and allowed free access to food and water. At each time point (0.50, 1, and 2 hours) n=3 animals were used. The compounds of formula (I) were suitably preformulated and administered orally at (free base equivalent) 3 mg/kg. Blood samples were removed via, cardiac puncture by using isoflurane anesthesia. The animals were sacrificed to collect brain tissue. Plasma was separated and brain samples were homogenized and stored frozen at −20° C. until analysis. The concentrations of the compounds of formula (I) in plasma and brain were determined using LC-MS/MS method. The compounds of formula (I) were quantified in plasma and brain homogenate by qualified LC-MS/MS method using suitable extraction technique. The compounds of formula (I) were quantified in the calibration range of 1-500 ng/mL in plasma and brain homogenate. Study samples were analyzed using calibration samples in the batch and quality control samples spread across the batch. Extent of brain-plasma ratio was calculated (Cb/Cp).

[3] = Rodent pharmacokinetic study; format: in vivo, Male wistar rats; details: plasma, Wistar/Male rat; for bioavailability: 3 mg/kg oral vs 1 mg/kg intravenous
Procedure: Male wistar rats (225±25 grams) were used as experimental animals. Three to five animals were housed in each cage. Two days prior to dosing day, male wistar rats (225-250 grams) were anesthetized with isoflurane for surgical placement of jugular vein catheter. Animals were fasted over night before oral dosing (p.o) and food pellets were allowed 2 hours post dosing, whereas during intravenous dosing food and water were provided as ad libitum. Three rats were dosed with compounds of formula (I) (3 mg/kg) orally and intravenously (1 mg/kg).
At each time point blood was collected through jugular vein and immediately replenish with an equivalent volume of normal saline from freely moving rats. Collected blood was transferred into a labeled eppendr off containing 10 μL of heparin as anticoagulant. Typically blood samples were collected as following time points: Pre dose, 0.08 (only i.v.), 0.25, 0.5, 1, 2, 4, 6, 8, and 24 hours post dose (n=3). Blood was centrifuged at 4000 rpm for 10 minutes. Plasma was prepared and stored frozen at −20° C. until analysis. The concentrations of the compounds of formula (I) were quantified in plasma by qualified LC-MS/MS method using suitable extraction technique. The compounds of formula (I) were quantified in the calibration range around 2-2000 ng/mL in plasma. Study samples were analyzed using calibration samples in the batch and quality control samples spread across the batch.
Pharmacokinetic parameters Cmax, Tmax, AUC1, T1/2 and Bioavailability were calculated by non-compartmental model using standard non-coinpartmental model by using WinNonLin 5.0.1 or Phoenix WinNonlin 6.2 version Software package.

[4] = system: Male Wistar rats; assay: Object recognition task model; format: in vivo; details: dose mg/kg: Ex 1 0.1, Ex 2 0.03, Ex 4 0.03, Ex 13 1, Ex 23 0.01, Ex 37 10, Ex 43 0.3; for Exploration time mean ± S.E.M, Familiar object / Exploration time mean ± S.E.M, Novel object: choice trial T2, p.o.; for Inference: p.o.
Procedure: The cognition enhancing properties of compounds of this invention were estimated by using this model.
Male Wistar rats (230-280 grams) were used as experimental animals. Four animals were housed in each cage. Animals were kept on 20% food deprivation before one day and given water ad libitum throughout the experiment and maintained on a 12 hours light/dark cycle. Also the rats were habituated to individual arenas for 1 hour in the absence of any objects.
One group of 12 rats received vehicle (1 mL/Kg) orally and another set of animals received compound of the formula (I) either orally or i.p., before one hour of the familiar (T1) and choice trial (T2).
The experiment was carried out in a 50×50×50 cm open field made up of acrylic. In the familiarization phase, (T1), the rats were placed individually in the open field for 3 minutes, in which two identical objects (plastic bottles, 12.5 cm height×5.5 cm diameter) covered in yellow masking tape alone (a1 and a2) were positioned in two adjacent corners, 10 cms from the walls. After 24 hours of the (T1) trial for long-term memory test, the same rats were placed in the same arena as they were placed in T1 trial. Choice phase (T2) rats were allowed to explore the open field for 3 minutes in presence of one familiar object (a3) and one novel object (b) (Amber color glass bottle, 12 cm high and 5 cm in diameter). Familiar objects presented similar textures, colors and sizes. During the T1 and T2 trial, explorations of each object (defined as sniffing, licking, chewing or having moving vibrissae whilst directing the nose towards the object at a distance of less than 1 cm) were recorded separately by stopwatch. Sitting on an object was not regarded as exploratory activity, however, it was rarely observed.
T1 is the total time spent exploring the familiar objects (a1+a2).
T2 is the total time spent exploring the familiar object and novel object (a3+b).
The object recognition test was performed as described by Behaviour Brain Research, (1988), 31, 47-59.

[5] = system: sAPPα; assay: Estimation of mice brain cortical sAPPα levels (ELISA); format: in vivo; details: s.c., 60 minutes post treatment
Procedure: The control group of mice received sterile water for injection subcutaneously (s.c.). […] Mice were sacrificed 60 minutes after the drug injection by cervical dislocation, the brains were quickly isolated and the cortex was dissected at −20° C. The cortex was immediately kept on a dry ice and weighed before being stored at −80° C. until Enzyme-linked immunosorbent assay (ELISA) was performed. • 1. Brain tissues were thawed and Tris Buffer Saline containing protease inhibitors (TBS, 4 times by volume) added (0.8 mL/200 mg tissues). • 2. Brain tissue samples were homogenized using glass-Teflon homogenizer at 10 strokes. The resulting homogenates were centrifuged at 15,000 rpm at 4° C. for 60 minutes. • 3. The supernatant was discarded and to the precipitate, 4 times volume (0.8 mL/200 mg tissues) of TBS was added. Again homogenized followed by centrifugation at 15,000 rpm 4° C. for 30 minutes. • 4. From the above centrifuged mixture the supernatant was discarded and 10 times volume of 6M Guanidine-HCl in 50 mM Tris buffer pH: 7.6 (500 μL/50 mg tissues) was added. The resulting solution was sonicated for 5 seconds, 4 times. • 5. Resulting mixture was incubated at the RT for 30 minutes, followed by centrifugation at 15,000 rpm, 4° C. for 30 minutes. From this 5 μL of supernatant solution was taken and diluted with 155 μL of EIA buffer (dilution factor 32). Measurement of sAPPα by ELISA Kit: To investigate the role of an acute treatment of test compound on sAPPα levels, we measured the expression of this protein in homogenates from the cortex of treated and untreated mice by ELISA assay. The entire procedure was followed as described in the ELISA kit manual (Mouse/Rat sAPPα ELISA, Catalog Number: JP27415, […], Hamburg, Germany). Statistical analyses were performed using the Graph Pad Prism (Version 4). Data are Mean±SD of sAPPa levels expressed as percentage of control values (mice which received water for injection). Values were compared between the different groups by using unpaired t test. The significance level was set at *p<0.05; […]; ***<0.001.

[6] = system: Scopolamine Induced amnesia; assay: Radial arm maze; format: in vivo; details: p.o., rats
Text: The cognition enhancing properties of compounds of formula (I) of this invention were estimated by using this model.
Radial arm maze consists of a central hub of 45 cm diameter. Each arm was of dimension 42.5×15×24 cm. The maze was elevated to a height of 1 m above the ground. The animals were placed on a restricted diet until they reached approximately 85% of their free feeding weight. During this diet restriction period animals were habituated to the novel feed (pellets). Once the rats reached approximately 85% of their free feeding weight rats were habituated to the maze on the 1st and 2nd day. […] Animals were randomized on day 2. On the subsequent days the treatment was given as per the allotment: Each animal was introduced into the maze individually for a period of 10 minutes. The arms were baited only once and the animal had to learn the rule that repeated arm entries would not be rewarded. The trial ended once the rat had visited 16 arms or 10 minutes were over or all the pellets were eaten. The arm entries were recorded using the software. Once the trial was over the rat was removed and the maze was cleaned using soap water.

| SMILES | Emax [1] | EC50 [1] | Kp [2] | AUC(0-t) ([3]; 1 mg/kg intravenous (bolus)) | Cmax ([3]; 1 mg/kg intravenous (bolus)) | Tmax ([3]; 1 mg/kg intravenous (bolus)) | half-life ([3]; 1 mg/kg intravenous (bolus)) | AUC(0-t) ([3]; 3 mg/kg oral (gavage)) | Cmax ([3]; 3 mg/kg oral (gavage)) | Tmax ([3]; 3 mg/kg oral (gavage)) | half-life ([3]; 3 mg/kg oral (gavage)) | bioavailability [3] | Exploration time mean ± S.E.M, Familiar object [4] | Exploration time mean ± S.E.M, Novel object [4] | Inference [4] | increase in the mice brain cortical sAPPα levels ([5]; 0.3 mg/kg) | increase in the mice brain cortical sAPPα levels ([5]; 1.0 mg/kg) | Reversal of Scopolamine Induced amnesia - Effective dose range [6] |
| --- | --- | --- | --- | --- | --- | --- | --- | --- | --- | --- | --- | --- | --- | --- | --- | --- | --- | --- |
| Nc1c(Cl)cc(C(=O)NCC2C3CN(CC4CCOCC4)CC23)c2ncccc12.O=C(O)C(O)C(O)C(=O)O (stereo not drawn) [Example 2, 5-Amino-6-chloro-N-{[3-(tetrahydro-2H-pyran-4-ylmethyl)-3-azabicyclo[3.1.0]hex-6-yl]methyl}quinoline-8-carboxamide L(+)-tartarate] | 59% | 0.5 nM | 1.31 ± 0.1 | 284 ± 10 ng·h/mL | 252 ± 30 ng/mL | 4.8 min | 96 ± 6 min | 531 ± 51 ng·h/mL | 140 ± 24 ng/mL | 25.2 ± 8.4 min | 72 ± 6 min | 62 ± 6% | 7.46 ± 1.30 s | 15.75 ± 1.65 s | Active | – | – | – |
| Nc1c(Cl)cc(C(=O)NCC2CCN(CC3(O)CCOCC3)CC2)c2ncccc12.O=C(O)C(O)C(O)C(=O)O [Example 23, 5-Amino-6-chloro-N-{[1-(4-hydroxytetrahydro-2H-pyran-4-ylmethyl)-4-piperidinyl]methyl}quinoline-8-carboxamide L(+)-tartarate] | 67% | – | – | – | – | – | – | – | – | – | – | – | 8.80 ± 1.46 s | 16.80 ± 2.45 s | Active | 42% | 33% | 0.01-0.1 mg/kg, p.o. |
| Nc1c(Cl)cc(C(=O)NCC2(F)CCN(CC3(O)CCOCC3)CC2)c2ncccc12.O=C(O)C(O)C(O)C(=O)O [Example 27, 5-Amino-6-chloro-N-{[4-fluoro-1-(4-hydroxytetrahydro-2H-pyran-4-ylmethyl)-4-piperidinyl]methyl}quinoline-8-carboxamide L(+)-tartarate] | 63% | 0.6 nM | 0.4 ± 0.02 | 401 ± 15 ng·h/mL | 448 ± 41 ng/mL | 4.8 min | 102 ± 24 min | 236 ± 72 ng·h/mL | 173 ± 48 ng/mL | 15 min | – | 20 ± 6% | – | – | – | – | – | – |
| CC(C)(O)CN1CCC(F)(CNC(=O)c2cc(Cl)c(N)c3cccnc23)CC1.O=C(O)C(O)C(O)C(=O)O [Example 37, 5-Amino-6-chloro-N-{[4-fluoro-1-(2-hydroxy-2-methylpropyl)-4-piperidinyl]methyl} quinoline-8-carboxamide L(+)-tartarate] | 62% | 2.2 nM | 0.61 ± 0.07 | 274 ± 25 ng·h/mL | 324 ± 52 ng/mL | 4.8 min | 114 ± 6 min | 200 ± 49 ng·h/mL | 137 ± 37 ng/mL | 15 min | 78 ± 18 min | 24 ± 6% | 8.45 ± 1.65 s | 17.81 ± 1.42 s | Active | – | – | – |
| CC(C)(O)CN1CCC(F)(CNC(=O)c2cc(F)c(N)c3cccnc23)CC1.O=C(O)C(O)C(O)C(=O)O [Example 43, 5-Amino-6-fluoro-N-{[4-fluoro-1-(2-hydroxy-2-methylpropyl)-4-piperidinyl]methyl} quinoline-8-carboxamide L(+)-tartarate] | 43% | 2.9 nM | 0.93 ± 0.26 | 362 ± 83 ng·h/mL | 306 ± 47 ng/mL | 4.8 min | 114 ± 54 min | 373 ± 39 ng·h/mL | 231 ± 40 ng/mL | 19.8 ± 8.4 min | 204 ± 132 min | 34 ± 4% | 9.30 ± 0.93 s | 16.09 ± 2.63 s | Active | – | – | – |
